The values that follow come from US10125134B2 (Mirati Therapeutics, Inc., priority 2016, dated 2018).

Where a name gives a salt, the structure may show the parent alone. Read-outs that look alike come from different tables or passages of the source.

Assay [1] has as its system NCI-H358 cells (express KRas G12C), Phospho-ERK. The assay is described as follows: Cellular inhibition of KRas G12C: Phospho-ERK in NCI-H358 cells. It is filed as cell-based. To be noted: Homo sapiens, pERK(Thr202/Tyr204) normalized with GAPDH, NCI-H358 cells, 3 hours, read-out: IC50. The gist of the method:
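IC50 derived by 4-parameter fit of GAPDH-normalized pERK(Thr202/Tyr204) signal, as percent of DMSO control. Signal came from in-cell immunodetection with infrared secondaries after 3 h compound exposure of KRas G12C NCI-H358 cells at 0.5% DMSO.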

The target of a further assay is KRas G12C (Homo sapiens, UniProt P01116, C118S/C51S/C80L/G12C). The experiment in a line: KRas G12C Modification Assay (LCMS detection of covalent adduct). The format is binding. The conditions noted are these: normalized percent of control; tested at 5 μM concentration for 3 hours. An outline of the steps: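 Cys-light KRas G12C mutant protein incubated with compound in K-Ras assay buffer, reactions quenched at set time points with 25 mM acetic acid and analysed by intact-protein LC/MS on a C-3 column. Deconvoluted mass heights expressed as percent of control (POC) relative to compound-free protein.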

Usually IC50 stands for the concentration that inhibits the measured activity by half. As for `C=CC(=O)N1CCN(c2nc(OCCCN3CCOCC3)nc3c2CCN(c2cc(C(F)F)cc4ccccc24)C3)CC1` [Example 112, 1-(4-(7-(3-(difluoromethyl)naphthalen-1-yl)-2-(3-morpholinopropoxy)-5,6,7,8-tetrahydropyrido[3,4-d]pyrimidin-4-yl)piperazin-1-yl)prop-2-en-1-one], the IC50 in assay [1] is more than 1000 nM. Also, the POC entry on KRas G12C is “A (“A”≤25% POC)”.
For `C=CC(=O)N1CCN(c2ncnc3c2CC(=O)N(c2cc(O)cc4ccccc24)C3)CC1` [Example 113, 4-(4-acryloylpiperazin-1-yl)-7-(3-hydroxynaphthalen-1-yl)-7,8-dihydropyrido[3,4-d]pyrimidin-6(5H)-one], the IC50 in assay [1] is more than 1000 nM. For the same molecule, on KRas G12C, the POC result is recorded as “C (“C”>50% POC)”.
For the molecule `C=CC(=O)N1CC2(C1)CN(c1ncnc3c1CC(=O)N(c1cc(O)cc4ccccc14)C3)C2` [Example 114, 4-(6-acryloyl-2,6-diazaspiro[3.3]heptan-2-yl)-7-(3-hydroxynaphthalen-1-yl)-7,8-dihydropyrido[3,4-d]pyrimidin-6(5H)-one], in assay [1], the IC50 is more than 1000 nM. The POC result on KRas G12C is on record as “B (“B”>25% POC−≤50% POC)”.
For `C=CC(=O)N1CCN(c2nc(O[C@H](C)CN(C)C)nc3c2CCN(c2cc(O)cc4ccccc24)C3)[C@@H](C)C1` [Example 115, 1-((S)-4-(2-(((R)-1-(dimethylamino)propan-2-yl)oxy)-7-(3-hydroxynaphthalen-1-yl)-5,6,7,8-tetrahydropyrido[3,4-d]pyrimidin-4-yl)-3-methylpiperazin-1-yl)prop-2-en-1-one], in that order: 0.1 to 1000 nM and “C (“C”>50% POC)”.
As to `C=CC(=O)N1CCN(c2nc(OCCN(C)C)nc3c2CCN(c2cc(O)cc4ccccc24)C3)[C@@H](C)C1` [Example 116, (S)-1-(4-(2-(2-(dimethylamino)ethoxy)-7-(3-hydroxynaphthalen-1-yl)-5,6,7,8-tetrahydropyrido[3,4-d]pyrimidin-4-yl)-3-methylpiperazin-1-yl)prop-2-en-1-one], the IC50 in assay [1] (NCI-H358, 3 h) is 0.1 to 1000 nM. Also, the POC result on KRas G12C is “C (“C”>50% POC)”.
In the same order, the values of `C=CC(=O)N1CCN(c2nc(OCCN3CCOCC3)nc3c2CCN(c2cc(O)cc4ccccc24)C3)CC1` [Example 117, 1-(4-(7-(3-hydroxynaphthalen-1-yl)-2-(2-morpholinoethoxy)-5,6,7,8-tetrahydropyrido[3,4-d]pyrimidin-4-yl)piperazin-1-yl)prop-2-en-1-one] are more than 1000 nM and “C (“C”>50% POC)”.
In the same order, the values of `C=CC(=O)N1CCN(c2nc(N3CCOCC3)nc3c2CCN(c2cc(O)cc4ccccc24)C3)CC1` [Example 118, 1-(4-(7-(3-hydroxynaphthalen-1-yl)-2-morpholino-5,6,7,8-tetrahydropyrido[3,4-d]pyrimidin-4-yl)piperazin-1-yl)prop-2-en-1-one] are more than 1000 nM and “A (“A”≤25% POC)”.
For `C=CC(=O)N1CCN(c2nc(N3CCCC3)nc3c2CCN(c2cc(O)cc4ccccc24)C3)CC1` [Example 119, 1-(4-(7-(3-hydroxynaphthalen-1-yl)-2-(pyrrolidin-1-yl)-5,6,7,8-tetrahydropyrido[3,4-d]pyrimidin-4-yl)piperazin-1-yl)prop-2-en-1-one], in that order: more than 1000 nM and “B (“B”>25% POC−≤50% POC)”.
Regarding `C=CC(=O)N1CCN(c2nc(O[C@H](C)CN3CCCC3)nc3c2CCN(c2cc(O)cc4ccccc24)C3)CC1` [Example 120, (R)-1-(4-(7-(3-hydroxynaphthalen-1-yl)-2-((1-(pyrrolidin-1-yl)propan-2-yl)oxy)-5,6,7,8-tetrahydropyrido[3,4-d]pyrimidin-4-yl)piperazin-1-yl)prop-2-en-1-one], the IC50 in assay [1] (NCI-H358, 3 h) fell in the range of 0.1 to 1000 nM. The POC result on KRas G12C is on record as “C (“C”>50% POC)”.
With `C=CC(=O)N1CCN(c2nc(OCCCN3CCOCC3)nc3c2CCN(c2cc(O)cc4ccccc24)C3=O)CC1` [Example 121, 4-(4-acryloylpiperazin-1-yl)-7-(3-hydroxynaphthalen-1-yl)-2-(3-morpholinopropoxy)-6,7-dihydropyrido[3,4-d]pyrimidin-8(5H)-one], in assay [1], the IC50 was more than 1000 nM. In addition, the POC entry on KRas G12C is reported as “C (“C”>50% POC)”.
In the same order, the values of `C[C@H](CN(C)C)Oc1nc2c(c(N3CCN(C(=O)/C=C/CN(C)C)CC3)n1)CCN(c1cc(O)cc3ccccc13)C2` [Example 122, (R,E)-4-(dimethylamino)-1-(4-(2-((1-(dimethylamino)propan-2-yl)oxy)-7-(3-hydroxynaphthalen-1-yl)-5,6,7,8-tetrahydropyrido[3,4-d]pyrimidin-4-yl)piperazin-1-yl)but-2-en-1-one bis-trifluoroacetate] are more than 1000 nM and “C (“C”>50% POC)”.
For the molecule `C=CC(=O)N1CCN(c2nc(OCC(O)CN3CCOCC3)nc3c2CCN(c2cc(O)cc4ccccc24)C3)CC1` (centres unmarked) [Example 123, 1-(4-(2-(2-hydroxy-3-morpholinopropoxy)-7-(3-hydroxynaphthalen-1-yl)-5,6,7,8-tetrahydropyrido[3,4-d]pyrimidin-4-yl)piperazin-1-yl)prop-2-en-1-one], the IC50 in assay [1] (NCI-H358, 3 h) was more than 1000 nM. For the same molecule, the POC result on KRas G12C is recorded as “A (“A”≤25% POC)”.
For the molecule `C=CC(=O)N1CCN(c2nc(O[C@H](C)CN(C)C)nc3c2CCN(c2cc(O)c(F)c4ccccc24)C3)CC1` [Example 124, (R)-1-(4-(2-((1-(dimethylamino)propan-2-yl)oxy)-7-(4-fluoro-3-hydroxynaphthalen-1-yl)-5,6,7,8-tetrahydropyrido[3,4-d]pyrimidin-4-yl)piperazin-1-yl)prop-2-en-1-one], the IC50 in assay [1] was more than 1000 nM. Also, the POC result at KRas G12C was “C (“C”>50% POC)”.
In the same order, the values of `C=CC(=O)N1CCN(c2nc(O[C@H](C)CN(C)C)nc3c2CCN(c2cc(O)c(Cl)c4ccccc24)C3)CC1` [Example 125, (R)-1-(4-(7-(4-chloro-3-hydroxynaphthalen-1-yl)-2-((1-(dimethylamino)propan-2-yl)oxy)-5,6,7,8-tetrahydropyrido[3,4-d]pyrimidin-4-yl)piperazin-1-yl)prop-2-en-1-one] are more than 1000 nM and “A (“A”≤25% POC)”.
For the molecule `C=CC(=O)N1CCN(c2nc(OCCc3ccccn3)nc3c2CCN(c2cc(O)cc4ccccc24)C3)CC1` [Example 126, 1-(4-(7-(3-hydroxynaphthalen-1-yl)-2-(2-(pyridin-2-yl)ethoxy)-5,6,7,8-tetrahydropyrido[3,4-d]pyrimidin-4-yl)piperazin 1-yl)prop-2-en-1-one trifluoroacetate], the IC50 in assay [1] (NCI-H358, 3 h) is more than 1000 nM. In addition, on KRas G12C, the POC result was “C (“C”>50% POC)”.
In the same order, the values of `C=CC(=O)N1CCN(c2nc(N3CC(N(C)C)C3)nc3c2CCN(c2cc(O)cc4ccccc24)C3)CC1` [Example 128, 1-(4-(2-(3-(dimethylamino)azetidin-1-yl)-7-(3-hydroxynaphthalen-1-yl)-5,6,7,8-tetrahydropyrido[3,4-d]pyrimidin-4-yl)piperazin-1-yl)prop-2-en-1-one] are more than 1000 nM and “C (“C”>50% POC)”.
For `C=CC(=O)N1CCN(c2nc(O[C@H](C)[C@H]3CCCN3C)nc3c2CCN(c2cc(O)cc4ccccc24)C3)CC1` [Example 129, 1-[4-[7-(3-hydroxy-1-naphthyl)-2-[(1R)-1-[(2R)-1-methylpyrrolidin-2-yl]ethoxy]-6,8-dihydro-5H-pyrido[3,4-d]pyrimidin-4-yl]piperazin-1-yl]prop-2-en-1-one], in that order: 0.1 to 1000 nM and “C (“C”>50% POC)”.
In the same order, the values of `C=CC(=O)N1CCN(c2nc(O[C@@H](C)[C@@H]3CCCN3C)nc3c2CCN(c2cc(O)cc4ccccc24)C3)CC1` [Example 130, 1-(4-(7-(3-hydroxynaphthalen-1-yl)-2-((S)-1-((S)-1-methylpyrrolidin-2-yl)ethoxy)-5,6,7,8-tetrahydropyrido[3,4-d]pyrimidin-4-yl)piperazin-1-yl)prop-2-en-1-one] are 0.1 to 1000 nM and “C (“C”>50% POC)”.
Regarding `C=CC(=O)N1CCN(c2nc(O[C@H](C)CN(C)CC)nc3c2CCN(c2cc(O)cc4ccccc24)C3)CC1` [Example 131, 1-[4-[2-[(1R)-2-[ethyl(methyl)amino]-1-methyl-ethoxy]-7-(3-hydroxy-1-naphthyl)-6,8-dihydro-5H-pyrido[3,4-d]pyrimidin-4-yl]piperazin-1-yl]prop-2-en-1-one], the IC50 in assay [1] was in the range of 0.1 to 1000 nM. Also, the POC entry on KRas G12C is “C (“C”>50% POC)”.
With `C=CC(=O)N1CCN(c2nc(OCC3CCN(C4CCCCC4)C3)nc3c2CCN(c2cc(O)cc4ccccc24)C3)CC1` (centres unmarked) [Example 132, 1-[4-[2-[(1-cyclohexylpyrrolidin-3-yl)methoxy]-7-(3-hydroxy-1-naphthyl)-6,8-dihydro-5H-pyrido[3,4-d]pyrimidin-4-yl]piperazin-1-yl]prop-2-en-1-one], the IC50 in assay [1] (NCI-H358, 3 h) lay within 0.1 to 1000 nM. For the same molecule, the POC entry at KRas G12C is “C (“C”>50% POC)”.
For the molecule `C=CC(=O)N1CCN(c2nc(NCCCN3CCOCC3)nc3c2CCN(c2cc(O)cc4ccccc24)C3)CC1` [Example 133, 1-[4-[7-(3-hydroxy-1-naphthyl)-2-(3-morpholinopropylamino)-6,8-dihydro-5H-pyrido[3,4-d]pyrimidin-4-yl]piperazin-1-yl]prop-2-en-1-one], the IC50 in assay [1] is more than 1000 nM. In addition, the POC result on KRas G12C is on record as “C (“C”>50% POC)”.
For the molecule `C=CC(=O)N1CCN(c2nc(OCCCN3CCN(C(C)=O)CC3)nc3c2CCN(c2cc(O)cc4ccccc24)C3)CC1` [Example 135, 1-[4-[2-[3-(4-acetylpiperazin-1-yl)propoxy]-7-(3-hydroxy-1-naphthyl)-6,8-dihydro-5H-pyrido[3,4-d]pyrimidin-4-yl]piperazin-1-yl]prop-2-en-1-one], the IC50 in assay [1] (NCI-H358, 3 h) lay in the range of 0.1 to 1000 nM. Besides, the POC entry at KRas G12C is reported as “C (“C”>50% POC)”.
